Patent US20250369050A1, “METHODS AND COMPOSITIONS RELATED TO ASSESSMENT AND TREATMENT OF KIDNEY DISEASE” (Board of Regents, The University of Texas System, priority 2022, published 2025)
Where two headings read alike, the source gives them in different places.

Tests used:
db/db mice [1] = tested on: db/db mice
Protocol: FIG. 26. […] NaHS administered for 4 weeks to db/db mice and db/m mice and MTAP/-b-actin and fibronectin/b-actin levels were evaluated by immunoblotting. Urine ACR was measured at end of 4-week period of NaHS administration.

[2] = tested on: Kidney tubules (MCT) cells; experiment: Adenine-induced fibronectin accumulation in MCT cells (FIG. 19); format: cell-based, mouse
Protocol: FIG. 19. Effect of Rapamycin and NaHS on Adenine. […] A. Kidney tubules (MCT) cells were pre-incubated with 10 nM of rapamycin for 30 min followed by incubation with 20 μM of adenine for 15 min. B. MCT cells were incubated with 20 μM of adenine and 250 μM NaHS for 15 min.

[3] = tested on: human insulin receptor mRNA; experiment: Insulin receptor mRNA knockdown in HK2 cells by qRTPCR (FIG. 36); format: cell-based; details: 96 h after transfection, vs control siRNA
Protocol: FIG. 36. siRNA to Human and Pig Insulin receptor is effective to reduce mRNA for Insulin receptor in human kidney cells. Human kidney (HK2) proximal tubular cells were transfected with siRNA (4 ul from 10 um stock) using RNAiMax (6 ul in optiMEM) and plated on 6 well plates. After 48 h, the media was replaced with fresh media. After 96 h of the transfection, total RNA was isolated and subjected to cDNA synthesis followed by qRTPCR.
In this non-limiting example, siRNA targeting human/pig insulin receptor mRNA can reduce human insulin receptor in human tubular cells. (FIG. 36). In FIG. 36, siRNA to human and pig insulin receptor is effective to reduce mRNA for insulin receptor in human kidney cells. Human kidney (HK2) proximal tubular cells were transfected with siRNA (4 ul from 10 um stock) using RNAiMax (6 ul in optiMEM) and plated on 6 well plates. After 48 h, the media was replaced with fresh media. After 96 h of the transfection, total RNA was isolated and subjected to cDNA synthesis followed by qRTPCR.

[4] = tested on: mouse insulin receptor mRNA; experiment: Insulin receptor mRNA knockdown in MCT cells by qRTPCR (FIG. 34); format: cell-based; details: reverse transfection, 72 h
Protocol: (§1) FIG. 34. siRNAs to insulin receptor (IR) based on sequence in mouse and rat reduces IR in mouse kidney cells. Mouse cortical tubular (MCT) cells were reverse transfected with siRNAs targeting mouse and rat insulin receptor mRNA (m/r IRsiRNA #1 and m/r IR siRNA #5) using RNAiMax (6 ul in optiMEM) and plated on 6 well plates. After 72 h of incubation, total RNA was isolated and subjected to cDNA synthesis followed by qRTPCR (n=6/group, ****p<0.0001).
as §1, with “34 illustrates the administration of the siRNA for the insulin receptor to mice treated with adenine reduced insulin receptor in the kidney but not in liver and prevented the increase in blood urea nitrogen levels (FIG. 35). In FIG. 34,” for “34.”

[5] = tested on: mice challenged with adenine; experiment: In vivo IRsiRNA #1 with adenine challenge in drinking water in mice (FIG. 35); set-up: species or system mouse
Protocol: (§2) FIG. 35. In vivo administration of IRsiRNA #1 reduced IR specifically in mouse kidney and prevented adenine-induced rise in BUN levels in mice. Mice were administered vehicle or kidney targeting IRsiRNA #1 prior to being challenged with adenine (5 mM) in the drinking water for 4 days.
as §2, with “In FIG.” for “FIG.”, “35, in” for “35. In”, “Blood Urea Nitrogen (BUN)” for “BUN”

[6] = tested on: patients with hyperfiltration; experiment: Urine adenine in type 1 diabetic patients with hyperfiltration treated with empagliflozin (FIG. 23); format: in vivo, human; details: high risk patients with hyperfiltration, after 8 weeks of treatment
Excerpt: FIG. 23. Empagliflozin reduces urine adenine levels in patients with hyperfiltration. Hyperfilterers (red lines and dots) and normofilterers (blue lines and dots). Overall effect of treatment (Visit 3 and 4 vs. Visit 12 and 13) on least square mean changes to log-transformed adenine levels is reported. Significant p-values stated. *p<0.05, **p<0.01.

[7] = tested on: mice undergoing ischemia-reperfusion injury; experiment: Ischemia-reperfusion injury in mice, BUN (FIG. 25); format: in vivo, mouse; details: inhibitor given once before ischemia 30 min and reperfusion, BUN 24 h later
Protocol: FIG. 25. MTAP inhibitor DADMe-ImmA given once before ischemia-reperfusion injury prevents an increase in BUN levels in mice undergoing ischemia-reperfusion injury. Mice underwent ischemia for 30m followed by reperfusion and 24 h later, the BUN was measured.

db/db mice [8] = experiment: MTAP inhibitor for 8 weeks in db/db mice (FIG. 32, 33); format: in vivo, mouse
Protocol: FIG. 32. […] Control (db/m) and diabetic (db/db) mice were treated from week 12 to week 20 with MTAP inhibitor (10 mg/kg/day in drinking water) and 24 h urine samples were collected and measured for albumin/creatinine ratio (A), hydrogen peroxide/creatinine ratio (B) and collagen/creatinine ratio (C). (*p<0.05, ANOVA, n=5-6/group)
FIG. 33. […] Control (db/m) and diabetic (db/db) mice were treated from week 12 to week 20 with MTAP inhibitor (10 mg/kg/day in drinking water) and kidney weight was standardized per tibia length (A). Kidney cortex was immunoblotted for fibronectin and laminin y1 and standardized for b-actin with quantitative data shown in (B) and (C), respectively. (*p<0.05, ANOVA, n=5-6/group)

kidney cells [9] = experiment: Protection of kidney cells from cell death by MTAP inhibitor (FIG. 18); format: cell-based; details: cell stress due to reduction of MDM2
kidney cells [10] = experiment: Adenine toxicity to kidney cells (FIG. 13); format: cell-based
mice = experiment: Adenine administration to mice (FIG. 30, 31); format: in vivo, mouse
Excerpt: FIG. 30. Adenine administration to mice increases serum sTNFR1 (A), plasma KIM-1 (B). (n=12 in control group and n=7 in adenine treated group, *p<0.05, **p<0.01, ***p<0.001, […] vs control by t-test or One-way ANOVA).
FIG. 31. Adenine administration to mice increases kidney (A) and heart (B) hypertrophy and mTOR mediated matrix molecules in the kidney (C). Quantitative assessment of phosphor-S6 kinase as a measure of mTOR (D), fibronectin/-b-actin (E) and collagen type 1 alpha 2 chain (F). (n=12 in control group and n=7 in adenine treated group, *p<0.05, **p<0.01, ***p<0.001, […] vs control by t-test or One-way ANOVA).
Patients with type 1 diabetes (n=8) or type 2 diabetes (n=8) have an increase in tissue levels of adenine in their kidney biopsies as compared to healthy controls (n=5)(FIG. 29). Adenine administration is causative of the major manifestations of diabetic kidney disease in a mouse model, including serum soluble tumor necrosis factor receptor-1 (sTNFR1) and plasma kidney injury […] (KIM1) (FIG. 30). Adenine also stimulates kidney hypertrophy and heart hypertrophy (FIG. 31) as well as kidney phosphor-S6-kinase (marker of mTOR activity), kidney fibronectin and kidney collagen type 1 alpha-2 chain (FIG. 31). An inhibitor of MTAP (DADMe-ImmA 10 mg/kg/d in drinking water for 8 weeks) reduces urine ACR, urine hydrogen peroxide (urine H2O2) and urine collagen in a mouse model of diabetic kidney disease (db/db mouse) (FIG. 32).

mTOR pathway = experiment: Adenine-induced stimulation of mTOR pathway (P-S6K) in tubular cells (FIG. 28); format: cell-based; details: adenine challenge
Excerpt: The downstream pathways stimulated by adenine are PI3Kinase, AKT and mTOR (FIG. 28). […] Once mTOR is inhibited the downstream effect of adenine to stimulate matrix accumulation was reduced (FIG. 19).

kidney tubular cells = experiment: Adenine stimulation of extracellular matrix molecules in kidney tubular cells; format: cell-based
[11] = tested on: human proximal tubular cells (HK2); experiment: ATP generation by Seahorse analysis in HK2 cells exposed to adenine; format: cell-based
[12] = 10 mg/kg/day in drinking water, week 12 to 20, 24 h urine
[13] = 10 mg/kg/day, 8 weeks, kidney cortex immunoblot
[14] = adenine administration vs control

`[Na+].[SH-]` [NaHS, sodium hydrogen sulfide] was tested, and the MTAP/b-actin by immunoblotting (db/db mice [1]; NaHS 4 weeks, kidney) was “significant reduction”, the fibronectin/b-actin by immunoblotting (db/db mice [1]; NaHS 4 weeks, kidney) was “significant reduction” and the “urine ACR” value (db/db mice [1]; end of 4-week NaHS administration) was “significant reduction”. For the same compound, the adenine-induced fibronectin production ([2]; MCT cells, 20 μM adenine and 250 μM NaHS for 15 min) was “inhibit adenine-induced fibronectin production”, the “adenine-induced disease causing pathways (mTOR)” value ([2]; kidney cells, NaHS) was “protects against” and the “healing pathways (AMPK)” value ([2]; kidney cells, NaHS) was “improving healing pathways (AMPK)”.
“H/P IR siRNA #4: siRNA targeting human and pig IR mRNA, SEQ ID NO. 21 (+) and SEQ ID NO. 22 (−) (sense GGAAUGACCAGAGACAUCUAUGAAA; antisense UUUCAUAGAUGUCUCUGGUCAUUCCAA; listed as RNA, chemistry not fully specified)” was tested, and the “human insulin receptor mRNA” value [3] was “significant reduction”.
For “m/r IRsiRNA #1: siRNA targeting mouse/rat IR mRNA, SEQ ID NO. 1 (+) and SEQ ID NO. 2 (−) (sense GGCUCUGUCCGCAUCGAGAAGAAUA; antisense UAUUCUUCUCGAUGCGGACAGAGCCCC; listed as RNA, chemistry not fully specified)”, the “mouse insulin receptor at mRNA level” value [4] was “significant reduction”, the “IR in mouse kidney cortex” value ([5]; day 4, immunoblot vs control sample) was “reduction of IR in mouse kidney cortex” and the BUN levels ([5]; siRNA before adenine 5 mM in drinking water for 4 days) was “no increase in BUN levels”.
“H/P siRNA #2: siRNA targeting human and pig IR mRNA, SEQ ID NO. 17 (+) and SEQ ID NO. 18 (−) (sense CAGUACGUCAUUCACAACAACAAGU; antisense ACUUGUUGUUGUGAAUGACGUACUGGU; listed as RNA, chemistry not fully specified)” was tested, and the “human insulin receptor mRNA” value [3] was “significant reduction”.
In the case of `OC[C@H]1O[C@@H](c2ccc(Cl)c(Cc3ccc(O[C@H]4CCOC4)cc3)c2)[C@H](O)[C@@H](O)[C@@H]1O` [Empagliflozin], the urine adenine/creatinine levels [6] is reported as “reduces urine adenine/creatinine levels”.
For `CSC[C@H]1CN(Cc2c[nH]c3c(N)ncnc23)C[C@@H]1O` [MT-DADMe-ImmA, Methylthio-DADMe-Immucillin], the BUN [7] was “no significant increase in BUN”, the “urine ACR” value (db/db mice [8]; [12]) was “reduces” and the “urine H2O2” value (db/db mice [8]; [12]) was “reduces”. The urine collagen (db/db mice [8]; [12]) was “reduces”, the kidney fibronectin (db/db mice [8]; [13]) was “reduced” and the “kidney laminin yI” value (db/db mice [8]; [13]) was “reduced”. For the same compound, the kidney hypertrophy (db/db mice [8]; 10 mg/kg/day, 8 weeks, kidney weight per tibia length) was “reduced” and the “protection of kidney cells from cell death” value (kidney cells [9]) was “protects kidney cells from cell death”.
In the case of `Nc1ncnc2nc[nH]c12` [Adenine], the “toxicity to kidney cells” value (kidney cells [10]) is reported as “toxic to kidney cells”, the heart hypertrophy (mice; adenine administration) is reported as “stimulates” and the “kidney collagen type 1 alpha-2 chain” value (mice; adenine administration) is reported as “stimulates”. The kidney fibronectin (mice; adenine administration) was “stimulates”, the kidney hypertrophy (mice; adenine administration) was “stimulates” and the “kidney phosphor-S6-kinase (marker of mTOR activity)” value (mice; adenine administration) was “stimulates”. The “plasma KIM-1” value (mice; [14]) was “increases”, the “serum sTNFR1” value (mice; [14]) was “increases” and the “S6K phosphorylation (P-S6K)” value (mTOR pathway) was “increased within minutes of adenine challenge”. For the same compound, the “Type I collagen” value (kidney tubular cells) was “rapidly stimulates Type I collagen”, the fibronectin production (kidney tubular cells) was “stimulates” and the ATP generation ([11]; dose dependence) was “dose-dependently reduced ATP generation”. The ATP generation ([11]; high doses of adenine) was “complete reduction of ATP generation” and the “elevation in BUN levels vs non-adenine group” value ([5]; vehicle and adenine 5 mM in drinking water for 4 days) was 3 fold.
“m/r IR siRNA #5: siRNA targeting mouse/rat IR mRNA, SEQ ID NO. 9 (+) and SEQ ID NO. 10 (−) (sense AAAUCAGUUCCUCAAAUUGACCAAU; antisense AUUGGUCAAUUUGAGGAACUGAUUUUG; listed as RNA, chemistry not fully specified)” was tested, and the “mouse insulin receptor at mRNA level” value [4] was “significant reduction”.
